Test system: murine brainstem glioma (mBSG) cells
Assay: Cell viability / proliferation IC50
Assay type: cell-based
Conditions: Mus musculus, read-out: IC50, cell viability

Cc1nc(Nc2ncc(C(=O)Nc3c(C)cccc3Cl)s2)cc(N2CCN(CCO)CC2)n1 [dasatinib]
IC50: 19 ± 20 nM

COc1cccc2c1C(=O)c1c(O)c3c(c(O)c1C2=O)C[C@@](O)(C(=O)CO)C[C@@H]3O[C@H]1C[C@H](N)[C@H](O)[C@H](C)O1 [doxorubicin]
IC50: 710 ± 120 nM
